# Values quoted from earlier work in PubChem BioAssay AID1259409 (Chemical Carcinogenesis Research Information System (CCRIS), 2018).
# Values joined by “and” are separate entries in the source; they are usually repeats but may differ in a detail not shown here. Identical values can stand only once.
# Test system: rodent chemically induced tumor inhibition, incidence and multiplicity
# Assay: CCRIS tumor inhibitor studies
smiles,measurement,setting,value
CC1=C(/C=C/C(C)=C\C=C\C(C)=C\C(=O)O)C(C)(C)CCC1,outcome,"Carcinogen: 4-(Methylnitrosamino)-1-(3-pyridyl)-1-butanone [64091-91-4] (NNK), Dose [Inhibitor]: 0, 7.5, 15, 30 mg/kg in diet for 17 wks, study duration 17 wks, Dose [Inhibitor]: 0, 7.5, 15, 30 mg/kg in diet for 17 wks, study duration 17 wks, Route [Inhibitor]: Oral, Species: Mouse, Strain/Sex: A/J/Male, Target Tissue: Type of Lesion: Lung, Dose [Carcinogen]: 100 mg NNK/kg bw once at 8 wks of age, study duration 17 wks",14/14 (100%); 13/14 (93%); 14/14 (100%); 11/13 (85%)
same,"tumour outcome (control, treated, inhibition, significance)","Carcinogen: N-METHYL-N-NITROSOUREA, 684-93-5, Dose [Inhibitor]: 0, 3.3 UG/KG OF DIET FOR 147 D (STUDY DURATION: 150 D), Route [Inhibitor]: ORAL, Species: RAT, Strain/Sex: SPRAGUE-DAWLEY/FEMALE, Target Tissue: Type of Lesion: MAMMARY GLAND: ADENOCARCINOMA, Dose [Carcinogen]: 50 MG/KG BW ONCE 3 D BEFORE INITIAL INHIBITOR DOSE, Promoter: NONE USED","25/25 (100%), 25/25 (100%), 0%, not significant"
same,"tumour outcome (control, treated, inhibition, significance)","Carcinogen: N-METHYL-N-NITROSOUREA, 684-93-5, Dose [Inhibitor]: 0, 10 UG/KG OF DIET FOR 147 D (STUDY DURATION: 150 D), Route [Inhibitor]: ORAL, Species: RAT, Strain/Sex: SPRAGUE-DAWLEY/FEMALE, Target Tissue: Type of Lesion: MAMMARY GLAND: ADENOCARCINOMA, Dose [Carcinogen]: 50 MG/KG BW ONCE 3 D BEFORE INITIAL INHIBITOR DOSE, Promoter: NONE USED","25/25 (100%), 25/25 (100%), 0%, not significant"
same,"tumour outcome (control, treated, inhibition, significance)","Carcinogen: N-METHYL-N-NITROSOUREA, 684-93-5, Dose [Inhibitor]: 0, 50 MG/KG OF DIET BEGINNING 1 WK PRIOR TO CARCINOGEN DOSE (STUDY DURATION: 14 MO), Route [Inhibitor]: ORAL, Species: RAT, Strain/Sex: WISTAR-UNILEVER/MALE, Target Tissue: Type of Lesion: PROSTATE: ADENOCARCINOMA, Dose [Carcinogen]: 30 MG/KG BW ONCE ADMINISTERED TO RATS PRETREATED WITH 50 MG OF CYPROTERONE ACETATE BY GAVAGE FOR 21 CONSECUTIVE DAYS THE, Promoter: TESTOSTERONE, 58-22-0","22/34 (65%), 8/40 (20%), 70%, p<0.001"
same,"tumour outcome (control, treated, inhibition, significance)","Carcinogen: N-METHYL-N-NITROSOUREA, 684-93-5, Dose [Inhibitor]: 0, 60 MG/KG OF DIET FOR 147 D (STUDY DURATION: 150 D), Route [Inhibitor]: ORAL, Species: RAT, Strain/Sex: SPRAGUE-DAWLEY/FEMALE, Target Tissue: Type of Lesion: MAMMARY GLAND: ADENOCARCINOMA, Dose [Carcinogen]: 50 MG/KG BW ONCE 3 D BEFORE INITIAL INHIBITOR DOSE, Promoter: NONE USED","25/25 (100%), 24/25 (96%), 4%, not significant"
same,"tumour outcome (control, treated, inhibition, significance)","Carcinogen: N-METHYL-N-NITROSOUREA, 684-93-5, Dose [Inhibitor]: 0, 60 MG/KG OF DIET FOR DURATION OF STUDY BEGINNING 1 WK POST CARCINOGEN DOSE (STUDY DURATION: 5 MO), Route [Inhibitor]: ORAL, Species: RAT, Strain/Sex: SPRAGUE-DAWLEY/FEMALE, Target Tissue: Type of Lesion: MAMMARY GLAND: TUMOR, Dose [Carcinogen]: 50 MG/KG BW ONCE, Promoter: NONE USED","23/24 (96%), 9/12 (75%), 22%, p=0.1 and 29/30 (97%), 24/30 (80%), 18%, p=0.1"
same,"tumour outcome (control, treated, inhibition, significance)","Carcinogen: N-METHYL-N-NITROSOUREA, 684-93-5, Dose [Inhibitor]: 0, 100 MG/KG OF DIET BEGINNING 1 WK PRIOR TO CARCINOGEN DOSE (STUDY DURATION: 14 MO), Route [Inhibitor]: ORAL, Species: RAT, Strain/Sex: WISTAR-UNILEVER/MALE, Target Tissue: Type of Lesion: PROSTATE: ADENOCARCINOMA, Dose [Carcinogen]: 30 MG/KG BW ONCE ADMINISTERED TO RATS PRETREATED WITH 50 MG OF CYPROTERONE ACETATE BY GAVAGE FOR 21 CONSECUTIVE DAYS THE, Promoter: TESTOSTERONE, 58-22-0","22/34 (65%), 7/38 (18%), 72%, p<0.001"
same,"tumour outcome (control, treated, inhibition, significance)","Carcinogen: N-METHYL-NITROSOUREA [684-93-5], Dose [Inhibitor]: 60 MG/KG DIET BEGINNING 3 D POST-CARCINOGEN DOSE (STUDY DURATION: 150 D), Route [Inhibitor]: ORAL, Species: RAT, Strain/Sex: SPRAGUE-DAWLEY/FEMALE, Target Tissue: Type of Lesion: MAMMARY GLAND: ADENOCARCINOMA, Dose [Carcinogen]: 50 MG/KG BW ONCE AT 50 D OF AGE","25/25 (100%); 24/25 (96%), 4%, not significant"
same,"tumour outcome (control, treated, inhibition, significance)","Carcinogen: N-NITROSO-N-METHYLUREA, 684-93-5, Dose [Inhibitor]: 0, 60 MG/KG OF DIET FOR 3 MO BEGINNING 1 WK POST CARCINOGEN DOSE (STUDY DURATION: 100 D), Route [Inhibitor]: ORAL, Species: RAT, Strain/Sex: SPRAGUE-DAWLEY/FEMALE, Target Tissue: Type of Lesion: MAMMARY GLAND: TUMOR, Dose [Carcinogen]: 50 MG/KG BW ONCE, Promoter: NONE USED","100%, 58%, 42%, p<0.002"
same,"tumour outcome (control, treated, inhibition, significance)","Carcinogen: N-NITROSO-N-METHYLUREA, 684-93-5, Dose [Inhibitor]: 0, 60 MG/KG OF DIET FOR 4.5 MO BEGINNING 1 WK POST CARCINOGEN DOSE (STUDY DURATION: 100 D), Route [Inhibitor]: ORAL, Species: RAT, Strain/Sex: SPRAGUE-DAWLEY/FEMALE, Target Tissue: Type of Lesion: MAMMARY GLAND: TUMOR, Dose [Carcinogen]: 50 MG/KG BW ONCE, Promoter: NONE USED","96%, 75%, 22%, not significant"
same,"tumour outcome (control, treated, inhibition, significance)","Carcinogen: N-NITROSO-N-METHYLUREA, 684-93-5, Dose [Inhibitor]: 0, 120 MG/KG OF DIET FOR 3 MO BEGINNING 1 WK POST CARCINOGEN DOSE (STUDY DURATION: 100 D), Route [Inhibitor]: ORAL, Species: RAT, Strain/Sex: SPRAGUE-DAWLEY/FEMALE, Target Tissue: Type of Lesion: MAMMARY GLAND: TUMOR, Dose [Carcinogen]: 50 MG/KG BW ONCE, Promoter: NONE USED","100%, 25%, 75%, p<0.001"
same,"tumour outcome (control, treated, inhibition, significance)","Carcinogen: N-NITROSO-N-METHYLUREA, 684-93-5, Dose [Inhibitor]: 0, 120 MG/KG OF DIET FOR 4.5 MO BEGINNING 1 WK POST CARCINOGEN DOSE (STUDY DURATION: 100 D), Route [Inhibitor]: ORAL, Species: RAT, Strain/Sex: SPRAGUE-DAWLEY/FEMALE, Target Tissue: Type of Lesion: MAMMARY GLAND: TUMOR, Dose [Carcinogen]: 50 MG/KG BW ONCE, Promoter: NONE USED","96%, 42%, 56%, p<0.001"
CCCCCCCCCCCCCCCCCCCCCCCCCC(=O)N[C@@H](CO[C@H]1O[C@H](CO)[C@H](O)[C@H](O)[C@H]1O)[C@H](O)[C@H](O)CCCCCCCCCCCCCC,outcome,"Carcinogen: N-BUTYL-N-(4-HYDROXYBUTYL)NITROSAMINE, 3817-11-6, Dose [Inhibitor]: 0, 0.1 UG/KG ONCE/WK FOR 17 WK BY INTRAVESICULAR INSTILLATION UNDER ANESTHESIA, BEGINNING 1 WK AFTER INITIATION PERIOD (, Route [Inhibitor]: INTRAVESICULAR, Species: MOUSE, Strain/Sex: C57BL6/FEMALE, Target Tissue: Type of Lesion: URINARY BLADDER: SQUAMOUS CELL CARCINOMA, Dose [Carcinogen]: 0.05% IN DRINKING WATER FOR 8 WK","0/13 (0%), 0/13 (0%), not significant"
same,outcome,"Carcinogen: N-BUTYL-N-(4-HYDROXYBUTYL)NITROSAMINE, 3817-11-6, Dose [Inhibitor]: 0, 10 UG/KG ONCE/WK FOR 17 WK BY INTRAVESICULAR INSTILLATION UNDER ANESTHESIA, BEGINNING 1 WK AFTER INITIATION PERIOD (S, Route [Inhibitor]: INTRAVESICULAR, Species: MOUSE, Strain/Sex: C57BL6/FEMALE, Target Tissue: Type of Lesion: URINARY BLADDER: SQUAMOUS CELL CARCINOMA, Dose [Carcinogen]: 0.05% IN DRINKING WATER FOR 8 WK","0/13 (0%), 2/11 (18.2%), not significant"
same,"tumour outcome (control, treated, inhibition, significance)","Carcinogen: N-BUTYL-N-(4-HYDROXYBUTYL)NITROSAMINE, 3817-11-6, Dose [Inhibitor]: 0, 10 UG/KG ONCE/WK FOR 17 WK BY INTRAVESICULAR INSTILLATION UNDER ANESTHESIA, BEGINNING 1 WK AFTER INITIATION PERIOD (S, Route [Inhibitor]: INTRAVESICULAR, Species: MOUSE, Strain/Sex: C57BL6/FEMALE, Target Tissue: Type of Lesion: URINARY BLADDER: TRANSITIONAL CELL CARCINOMA, Dose [Carcinogen]: 0.05% IN DRINKING WATER FOR 8 WK","1/13 (7.7%), 3/11 (27.3%), -254%, not significant"
COc1c(O)cc(C2Oc3c(c(O)cc(O)c3[C@H]3c4c(O)cc(O)cc4O[C@H](c4ccc(O)cc4)[C@@H]3O)C[C@H]2O)cc1O (stereo partly drawn),"tumour outcome (control, treated, inhibition, significance)","Carcinogen: DIMETHYLNITROSAMINE [62-75-9], Dose [Inhibitor]: 100 MG/KG BW FOR 3 MO ADMINISTERED BEFORE CARCINOGEN (STUDY DURATION: 12 MO), Route [Inhibitor]: DIET, Species: MOUSE, Strain/Sex: B6C3F1/MALE, Target Tissue: Type of Lesion: LIVER: TUMOR, Dose [Carcinogen]: 5 MG/KG BW 3 X A WK FOR 2 MO, THEN 10 MG/KG 2 X WK FOR 4 WKS AFTER 3 MO OF GSPE","85% (dmn); 60% gspe before dmn, 29%, not calculated"
same,"tumour outcome (control, treated, inhibition, significance)","Carcinogen: DIMETHYLNITROSAMINE [62-75-9], Dose [Inhibitor]: 100 MG/KG BW FOR 9 MO AFTER CARCINOGEN TREATMENT (STUDY DURATION: 12 MO), Route [Inhibitor]: DIET, Species: MOUSE, Strain/Sex: B6C3F1/MALE, Target Tissue: Type of Lesion: LIVER: TUMOR, Dose [Carcinogen]: 5 MG/KG BW 3 X A WK FOR 2 MO, THEN 10 MG/KG 2 X WK FOR 1 MO","85% (dmn); 55% gspe, 35%, not calculated"
same,"tumour outcome (control, treated, inhibition, significance)","Carcinogen: DIMETHYLNITROSAMINE [62-75-9], Dose [Inhibitor]: 100 MG/KG BW FOR DURATION OF EXPERIMENT (STUDY DURATION: 12 MO), Route [Inhibitor]: DIET, Species: MOUSE, Strain/Sex: B6C3F1/MALE, Target Tissue: Type of Lesion: LIVER: TUMOR, Dose [Carcinogen]: 5 MG/KG BW 3 X A WK FOR 2 MO, THEN 10 MG/KG 2 X WK FOR 4 WKS","85% (dmn); 45% gspe, 47%, not calculated"
